The molecules below were run against T1, Recombinant human HSP90α (Homo sapiens, UniProt P07900) (assay: HSP90 radioligand filter binding test, competition with [3H]17AAG). Conditions: [3H]17AAG 0.08 μM; HSP90 1.5 μg/assay; 22° C., 30 min; read-out: HSP90 inhibition IC50.
T1 construct: host or cells: E. coli
Description: The binding of geldanamycin or 17-allylamino-17-demethoxygeldanamycin (17AAG) to HSP90 and competitive inhibition thereof can be utilised in order to determine the inhibitory activity of the compounds according to the invention (Carreras et al. 2003, Chiosis et al. 2002).
In the specific case, a radioligand filter binding test is used. The radioligand used here is tritium-labelled 17-allylaminogeldanamycin, [3H]17AAG. This filter binding test allows a targeted search for inhibitors which interfere with the ATP binding site.
• Recombinant human HSP90α (E. coli expressed, 95% purity); • [3H]17AAG (17-allylaminogeldanamycin, [allylamino-2,3-^3H. Specific activity: 1.11×10^12 Bq/mmol (Moravek, MT-1717); • HEPES filter buffer (50 mM HEPES, pH 7.0, 5 mM MgCl2, BSA 0.01%) Multiscreen FB (1 μm) filter plate (Millipore, MAFBNOB 50). Method
The 96-well microtitre filter plates are firstly irrigated and coated with 0.1% of polyethylenimine.
The test is carried out under the following conditions: • Reaction temperature 22° C. • Reaction time: 30 min., shaking at 800 rpm • Test volume: 50 μl • Final concentrations: • 50 mM HEPES HCl, pH 7.0, 5 mM MgCl2, 0.01% (w/v) BSA • HSP90:1.5 μg/assay • [3H]17AAG: 0.08 μM.
At the end of the reaction, the supernatant in the filter plate is removed by suction with the aid of a vacuum manifold (Multiscreen Separation System, Millipore), and the filter is washed twice.
The filter plates are then measured in a beta counter (Microbeta, Wallac) with scintillator (Microscint 20, Packard).
“% of control” is determined from the “counts per minutes” values and the IC-50 value of a compound is calculated therefrom.
Work on `COc1ccc(-c2c(C#N)c(N)nc3sc(C(N)=O)c(N)c23)cc1OC` [Compound A1, 2-aminocarbonyl-3,6-diamino-5-cyano-4-(3,4-dimethoxyphenyl)thieno[2,3-b]pyridine] yielded an IC50 of 1000 nM. In the case of `CCOC(=O)CCCCCOc1cc(-c2c(C#N)c(N)nc3sc(C(N)=O)c(N)c23)ccc1OC` [Compound A4, 2-aminocarbonyl-3,6-diamino-5-cyano-4-[3-(5-ethoxycarbonylpentyloxy)-4-methoxyphenyl]thieno[2,3-b]pyridine], the IC50 is reported as 2500 nM. `CCOC(=O)CCCCOc1cc(-c2c(C#N)c(N)nc3sc(C(N)=O)c(N)c23)ccc1OC` [Compound A7, 2-aminocarbonyl-3,6-diamino-5-cyano-4-[3-(4-ethoxycarbonylbutoxy)-4-methoxyphenyl]thieno[2,3-b]pyridine] gave an IC50 of 1500 nM. For `COc1ccc(-c2c(C#N)c(N)nc3sc(C(N)=O)c(N)c23)cc1OCCCCC(=O)O` [Compound A7a, 2-aminocarbonyl-3,6-diamino-5-cyano-4-[3-(4-carboxybutoxy)-4-methoxyphenyl]thieno[2,3-b]pyridine], the IC50 was 650 nM. `COc1ccc(-c2c(C#N)c(N)nc3sc(C(N)=O)c(N)c23)cc1OCCCCCC(=O)O` [Compound A7b, 2-aminocarbonyl-3,6-diamino-5-cyano-4-[3-(5-carboxypentyloxy)-4-methoxyphenyl]thieno[2,3-b]pyridine] gave an IC50 of 890 nM. `CCOC(=O)CCCOc1cc(-c2c(C#N)c(N)nc3sc(C(N)=O)c(N)c23)ccc1OC` [Compound A7c, 2-aminocarbonyl-3,6-diamino-5-cyano-4-[3-(3-ethoxycarbonylpropoxy)-4-methoxyphenyl]thieno[2,3-b]pyridine] showed an IC50 of 1300 nM. For `CCOC(=O)c1sc2nc(N)c(C#N)c(-c3ccc(OC)c(OC)c3)c2c1N` [Compound A9, 2-ethoxycarbonyl-3,6-diamino-5-cyano-4-(3,4-dimethoxyphenyl)thieno[2,3-b]pyridine], the IC50 was 14000 nM. In the case of `COc1ccc(-c2c(C#N)c(N)nc3sc(C(N)=O)c(N)c23)cc1OCc1ccccc1C` [Compound A11], the IC50 is reported as 1400 nM. `COc1ccc(-c2c(C#N)c(N)nc3sc(C(N)=O)c(N)c23)cc1OCc1cccc(C(F)(F)F)c1` [Compound A21] was tested, and the IC50 was 780 nM. `COc1ccc(-c2c(C#N)c(N)nc3sc(C(N)=O)c(N)c23)cc1OCC(N)=O` [Compound A30] was tested, and the IC50 was 3300 nM. In the case of `COc1ccc(-c2c(C#N)c(N)nc3sc(C(N)=O)c(N)c23)cc1OCc1ccc(C(=O)O)cc1` [Compound A689], the IC50 is reported as 740 nM. `COc1ccc(-c2c(C#N)c(N)nc3sc(C(N)=O)c(N)c23)cc1OCc1cccc(OC(F)F)c1` [Compound A693] gave an IC50 of 670 nM.

Source: patent US7943637B2, “Thienopyridine derivatives and the use thereof as HSP90 modulators” (Merck Patent GmbH, priority 2005, dated 2011)
